Source: ChEMBL document CHEMBL1201862, “PubChem BioAssay data set” (2004)
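The compound was tested at five concentrations on cells cultured in 96-well plates, with a 48-hour exposure period. The concentration for 50% growth inhibition is given as GI50.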 Calls of active or inactive are those of the source. Rule as the data show it: active = GI50 up to about 1.1 µM and inactive = higher.

How the values were obtained:
Assay in all cases: DTP human tumour cell line panel, 48 h
HT-29 = test system: HT-29
U-251 = test system: U-251
NCI-H460 = test system: NCI-H460
DU-145 = test system: DU-145
MCF7 = test system: MCF7
Malme-3M = test system: Malme-3M
RPMI-8226 = test system: RPMI-8226
HOP-92 = test system: HOP-92
SK-MEL-28 = test system: SK-MEL-28
SF-268 = test system: SF-268
OVCAR-5 = test system: OVCAR-5
T47D = test system: T47D
CCRF-CEM = test system: CCRF-CEM
SW-620 = test system: SW-620
SN12C = test system: SN12C
HOP-62 = test system: HOP-62
PC-3 = test system: PC-3
IGROV-1 = test system: IGROV-1
UO-31 = test system: UO-31
HL-60 = test system: HL-60

Measured: GI50

CCCN(CCc1ccc(-c2ccccc2)cc1)CCc1ccc2nn[nH]c2c1
inactive: HT-29 11.5 µM | U-251 12.9 µM | NCI-H460 8.51 µM | DU-145 9.25 µM | MCF7 11.6 µM | Malme-3M 8.79 µM | RPMI-8226 4.52 µM | HOP-92 5.37 µM | SK-MEL-28 4.31 µM | SF-268 19.2 µM | OVCAR-5 17.1 µM | T47D 4.04 µM | CCRF-CEM 4.26 µM | SW-620 10.7 µM | SN12C 13.6 µM | HOP-62 12.5 µM | PC-3 9.44 µM | IGROV-1 10 µM | UO-31 9.31 µM

O=C1C[C@H]2[C@@H](O1)[C@@H](O)CN1C(=O)c3ccccc3[C@H]21
inactive: HT-29 > 100 µM | U-251 > 100 µM | NCI-H460 > 100 µM | DU-145 > 100 µM | MCF7 > 100 µM | Malme-3M > 100 µM | RPMI-8226 > 100 µM | SK-MEL-28 > 100 µM | SF-268 > 100 µM | OVCAR-5 > 100 µM | T47D > 100 µM | CCRF-CEM > 100 µM | SW-620 > 100 µM | SN12C > 100 µM | HOP-62 > 100 µM | PC-3 > 100 µM | IGROV-1 > 100 µM | UO-31 > 100 µM

Oc1ccc(-c2nn3c(CCCCCCCCc4nnc5sc(-c6ccc(O)cc6)nn45)nnc3s2)cc1
inactive: HT-29 > 100 µM | U-251 > 100 µM | NCI-H460 > 100 µM | DU-145 > 100 µM | MCF7 > 100 µM | Malme-3M > 100 µM | RPMI-8226 > 100 µM | HOP-92 > 100 µM | SK-MEL-28 > 100 µM | SF-268 > 100 µM | OVCAR-5 > 100 µM | T47D 55.1 µM | CCRF-CEM > 100 µM | SW-620 > 100 µM | SN12C > 100 µM | HOP-62 > 100 µM | PC-3 > 100 µM | UO-31 > 100 µM

COC(=O)c1ccc(C)cc1CC1Cc2cc(C)ccc2C1=O (stereo unspecified)
inactive: HT-29 > 100 µM | U-251 > 100 µM | NCI-H460 > 100 µM | DU-145 > 10 µM | MCF7 > 100 µM | Malme-3M > 100 µM | RPMI-8226 > 100 µM | SK-MEL-28 > 100 µM | SF-268 > 100 µM | OVCAR-5 > 100 µM | T47D > 100 µM | CCRF-CEM > 100 µM | SW-620 > 100 µM | SN12C > 100 µM | HOP-62 > 100 µM | PC-3 > 100 µM | IGROV-1 > 100 µM | HL-60 > 100 µM | UO-31 > 100 µM

Cc1nc(-[n+]2nc(-c3ccncc3)nn2-c2ccccc2)sc1C
inactive: HT-29 55.1 µM | U-251 29.4 µM | DU-145 36.2 µM | MCF7 18.6 µM | Malme-3M > 100 µM | RPMI-8226 68.1 µM | SK-MEL-28 34.5 µM | SF-268 21.4 µM | OVCAR-5 44.6 µM | T47D 39.4 µM | CCRF-CEM 17.5 µM | SW-620 20.2 µM | SN12C 49.4 µM | HOP-62 7.96 µM | PC-3 15.5 µM | IGROV-1 5.01 µM | HL-60 57.5 µM | UO-31 7.73 µM

CCOC(=O)Nc1cc(NC(/C=N/NC(C)=O)C(=O)OCC)c(OC)cc1NC(C)=O (stereo unspecified)
inactive: HT-29 > 100 µM | U-251 > 100 µM | NCI-H460 > 100 µM | DU-145 > 100 µM | MCF7 > 100 µM | Malme-3M > 100 µM | RPMI-8226 > 100 µM | HOP-92 > 100 µM | SK-MEL-28 > 100 µM | SF-268 > 100 µM | OVCAR-5 > 100 µM | T47D > 100 µM | CCRF-CEM > 100 µM | SW-620 > 100 µM | SN12C > 100 µM | HOP-62 > 100 µM | PC-3 > 100 µM | IGROV-1 > 100 µM | UO-31 > 100 µM

CC1(C)C2CCC1(C)C(N/C(Sc1ccccc1)=C(/C(Cl)=C(Cl)Cl)[N+](=O)[O-])C2 (stereo unspecified)
inactive: HT-29 10.4 µM | U-251 11.4 µM | NCI-H460 15.3 µM | DU-145 17.7 µM | MCF7 11.2 µM | Malme-3M 15.1 µM | SK-MEL-28 12.4 µM | SF-268 12 µM | OVCAR-5 13.9 µM | T47D 13.5 µM | SW-620 11.7 µM | SN12C 13.9 µM | HOP-62 18.5 µM | PC-3 9.06 µM | UO-31 13.2 µM

CCN(CC)/C(SCc1ccccc1)=C(\C(Cl)=C(Cl)Cl)[N+](=O)[O-]
inactive: HT-29 25.8 µM | U-251 22.9 µM | NCI-H460 22.3 µM | DU-145 18 µM | MCF7 16.8 µM | Malme-3M 10.2 µM | RPMI-8226 14.9 µM | SK-MEL-28 15.9 µM | SF-268 18.4 µM | OVCAR-5 17.9 µM | T47D 18.9 µM | CCRF-CEM 12.5 µM | SW-620 21.8 µM | SN12C 21.1 µM | HOP-62 22 µM | PC-3 21.6 µM | IGROV-1 17.2 µM | HL-60 15.8 µM | UO-31 18.3 µM

C=CCNS(=O)(=O)c1ncnc2[nH]cnc12
inactive: HT-29 > 100 µM | U-251 > 100 µM | DU-145 > 100 µM | MCF7 > 100 µM | Malme-3M > 100 µM | RPMI-8226 11.8 µM | HOP-92 5.75 µM | SK-MEL-28 > 100 µM | OVCAR-5 > 100 µM | T47D > 100 µM | CCRF-CEM > 100 µM | SW-620 > 100 µM | SN12C 55.6 µM | HOP-62 > 100 µM | PC-3 > 100 µM | IGROV-1 > 100 µM | UO-31 > 100 µM

CCOC(=O)c1c(O)cc(=O)[nH]c1N1CCOCC1
inactive: HT-29 > 100 µM | U-251 > 100 µM | NCI-H460 > 100 µM | DU-145 > 100 µM | MCF7 > 100 µM | RPMI-8226 > 100 µM | HOP-92 > 100 µM | SK-MEL-28 > 100 µM | OVCAR-5 > 100 µM | T47D > 100 µM | CCRF-CEM > 100 µM | SW-620 > 100 µM | SN12C > 100 µM | HOP-62 > 100 µM | PC-3 > 100 µM | IGROV-1 > 100 µM | UO-31 > 100 µM

CN(C)Cc1nsc(N(C)C)n1
inactive: HT-29 > 100 µM | U-251 > 100 µM | NCI-H460 > 100 µM | DU-145 > 100 µM | MCF7 > 100 µM | Malme-3M > 100 µM | RPMI-8226 > 100 µM | HOP-92 > 100 µM | SK-MEL-28 > 100 µM | SF-268 > 100 µM | OVCAR-5 > 100 µM | T47D > 100 µM | SW-620 > 100 µM | SN12C > 100 µM | HOP-62 > 100 µM | PC-3 > 100 µM | IGROV-1 > 100 µM | UO-31 > 100 µM

COc1ccc(C2CC(c3ccc4ccccc4c3O)=NN2C(C)=O)cc1OC (stereo unspecified)
inactive: HT-29 > 100 µM | U-251 > 100 µM | NCI-H460 > 100 µM | DU-145 > 100 µM | MCF7 > 100 µM | Malme-3M > 100 µM | RPMI-8226 > 100 µM | HOP-92 > 100 µM | SK-MEL-28 > 100 µM | SF-268 61.7 µM | OVCAR-5 > 100 µM | T47D > 100 µM | CCRF-CEM 18.8 µM | SW-620 > 100 µM | SN12C > 100 µM | HOP-62 > 100 µM | PC-3 > 100 µM | IGROV-1 > 100 µM | UO-31 > 100 µM

COc1cc(C2OC(N)=C(C#N)C3=C2C(C)CCC3)cc(OC)c1OC (stereo unspecified)
inactive: HT-29 > 100 µM | U-251 > 100 µM | DU-145 95.9 µM | MCF7 > 100 µM | Malme-3M 39.9 µM | RPMI-8226 > 100 µM | SK-MEL-28 > 100 µM | SF-268 > 100 µM | OVCAR-5 > 100 µM | T47D 2.03 µM | CCRF-CEM > 100 µM | SW-620 > 100 µM | SN12C > 100 µM | HOP-62 12.7 µM | PC-3 81.5 µM | IGROV-1 47.1 µM | HL-60 > 100 µM | UO-31 > 100 µM

Cc1ncc([N+](=O)[O-])n1CCNC(=O)Cn1ccnc1[N+](=O)[O-]
inactive: HT-29 > 100 µM | U-251 > 100 µM | NCI-H460 > 100 µM | DU-145 > 100 µM | MCF7 > 100 µM | Malme-3M > 100 µM | SK-MEL-28 > 100 µM | SF-268 > 100 µM | OVCAR-5 > 100 µM | T47D > 100 µM | CCRF-CEM > 100 µM | SW-620 > 100 µM | SN12C > 100 µM | HOP-62 > 100 µM | PC-3 > 100 µM | IGROV-1 > 100 µM | HL-60 > 100 µM | UO-31 > 100 µM

CCC1OC2C(CC=C(C)C)=C3OC(C)(O)C(C)(CC)C(=O)C3=C3OC(=O)C=C1C32 (stereo unspecified)
inactive: U-251 36 µM | NCI-H460 17.4 µM | DU-145 58.6 µM | MCF7 27.9 µM | RPMI-8226 19.2 µM | HOP-92 21.7 µM | SK-MEL-28 27.6 µM | SF-268 38.6 µM | OVCAR-5 65.3 µM | T47D 66.2 µM | CCRF-CEM 29.7 µM | SW-620 27.5 µM | PC-3 38.8 µM | UO-31 15.3 µM
